# Measured values published in PubChem BioAssay (NCI).
#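 Grown in 96-well plates, cells were treated for 48 hours with each compound at five concentrations. Insufficient inhibition: endpoint recorded as highest concentration tested. TGI is the concentration that stops growth completely.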
# How the values were obtained:
# Experiment in all cases: NCI tumour cell line growth inhibition, 48 h
# HL-60(TB) leukemia = tested on: HL-60(TB) leukemia
# OVCAR-4 ovarian = tested on: OVCAR-4 ovarian
# MDA-N = tested on: MDA-N
# OVCAR-5 ovarian = tested on: OVCAR-5 ovarian
# SR leukemia = tested on: SR leukemia
# IGROV1 ovarian = tested on: IGROV1 ovarian
# CAKI-1 renal = tested on: CAKI-1 renal
# EKVX NSCLC = tested on: EKVX NSCLC
# RXF 393 renal = tested on: RXF 393 renal
Compound,TGI (HL-60(TB) leukemia),TGI (OVCAR-4 ovarian),TGI (MDA-N),TGI (OVCAR-5 ovarian),TGI (SR leukemia),TGI (IGROV1 ovarian),TGI (CAKI-1 renal),TGI (EKVX NSCLC),TGI (RXF 393 renal)
Cc1ccc(OCC2OC(n3cnc4c(Cl)nc(N)nc43)CC2Oc2ccc(C)cc2)cc1 (configuration not stated),> 71.7 µM,61.3 µM,> 100 µM,> 100 µM,> 100 µM,61.5 µM,20.3 µM,> 59.3 µM,> 100 µM
Cc1csc(NC23CC4CC(CC(C4)C2)C3)[n+]1C(P(=O)([O-])O)P(=O)(O)O (configuration not stated),,,> 100 µM,> 100 µM,> 100 µM,> 100 µM,> 100 µM,> 100 µM,> 100 µM
Cc1ccc(OCC2OC(n3cnc4nc(N)nc(Cl)c43)CC2Oc2ccc(C)cc2)cc1 (configuration not stated),,> 100 µM,39.5 µM,39.7 µM,> 100 µM,44.8 µM,23.6 µM,69.4 µM,
COP(=O)(OC)C(Cc1cn(C(C)=O)c2ccccc12)C(=O)O (configuration not stated),> 100 µM,> 100 µM,> 100 µM,> 100 µM,> 100 µM,> 100 µM,> 100 µM,,
CCOc1ccc(N/C(=C(/C(Cl)=C(/Cl)N(CC)CC)[N+](=O)[O-])n2nnc3ccccc32)cc1,,52.8 µM,70.4 µM,> 100 µM,,,26.9 µM,69.6 µM,29.2 µM
C=C/C(C)=C\CC1[C@](C)(O)CC[C@H]2C(C)(C)C(=O)CC[C@]12C (some centres not stated),60 µM,> 100 µM,> 100 µM,> 100 µM,66.5 µM,> 100 µM,> 100 µM,> 100 µM,> 100 µM
CCOC(=O)c1nc2ccc(C(F)(F)F)cc2nc1Oc1cc(OC)c(OC)c(OC)c1,> 100 µM,7.69 µM,> 100 µM,> 100 µM,,> 100 µM,,> 100 µM,> 100 µM
